# Values of other authors as cited in patent US20060198860A1, “Synergistic blends of monoterpenes for mountain pine beetle pheromones” (Phero Tech Inc., priority 2005, published 2006).
# Where two headings read alike, the source gives them in different places.
# Tests used:
# mountain pine beetle [1] = conditions: for catch versus pheromones alone: five doses, less than 1.0 mg per day to over 6.0 g per day
# mountain pine beetles = conditions: component alone
# mountain pine beetle [2] = conditions: myrcene at approximately 100 mg per day
# mountain pine beetle [3] = conditions: myrcene from 18 mg per day to 150 mg per day; traps also baited with trans-verbenol and exo-brevicomin
# mountain pine beetle [4] = conditions: in one instance (of four Rocky Mountain locations); with trans-verbenol and exo-brevicomin
compound,measurement,setting,value
CC1=CCC2C(C1)C2(C)C (centres unmarked) [3-carene],catches versus pheromones alone,mountain pine beetle [1]; dose of 600 mg per day,higher than to the pheromones alone
same,beetles caught,mountain pine beetles,one female
C=CC(=C)CCC=C(C)C [myrcene],catches versus pheromones alone,mountain pine beetle [1]; doses of 0.9 and 6.4 g per day,significantly higher
same,synergist relative to the foliage blend,mountain pine beetle [2]; females,over three times better
same,synergist relative to the foliage blend,mountain pine beetle [2]; males,over four times a better synergist
same,numbers of both sexes captured on raising the release rate,mountain pine beetle [3],more than doubling
CC1=CCC(=C(C)C)CC1 [terpinolene],catch versus pheromones alone,mountain pine beetle [1],no combination of terpinolene with trans-verbenol and exo-brevicomin that resulted in higher catches
same,response versus pheromones alone,mountain pine beetle [1]; highest dose (2.1 g per day),significantly lowered
same,"synergist, times better than myrcene",mountain pine beetle [4],~88 times
CC1=CCC2CC1C2(C)C (stereo not drawn) [α-pinene],catch versus pheromones alone,mountain pine beetle [1],at no dose was the catch significantly different
C=C1C=CC(C(C)C)CC1 (stereo not drawn) [β-phellandrene],catch versus pheromones alone,mountain pine beetle [1],at no dose was the catch significantly higher
C=C1CCC2CC1C2(C)C (stereo not drawn) [β-pinene],catch versus pheromones alone,mountain pine beetle [1],at no dose was the catch significantly different
CC1=CCC(C(C)C)=CC1 [γ-terpinene],catches versus pheromone controls,mountain pine beetle [1]; doses of 51.7 mg per day and 1.1 g per day,significantly higher
trans-verbenol,beetles caught,mountain pine beetles,no beetles
